Test results: patent publication US9850283B2, “Macrocyclic inhibitors of the PD-1/PD-L1 and CD80(B7-1)/PD-L1 protein/protein interactions” (BRISTOL-MYERS SQUIBB COMPANY, priority 2013, dated 2017)
Positions of bridges follow the written chain, without caps; N, C: chain ends. Non-standard residues stand in square brackets, D forms with d. Residues, ends and D or L forms follow the SMILES beside them. ξ: configuration not given here. Bip = N[C@@H](Cc1ccc(-c2ccccc2)cc1)C(=O)O; Phe(4-F) = N[C@@H](Cc1ccc(F)cc1)C(=O)O; NMeNle = CCCC[C@H](NC)C(=O)O; NMeV = CN[C@H](C(=O)O)C(C)C; NMeA = CN[C@@H](C)C(=O)O; ξP = O=C(O)C1CCCN1; Sar = CNCC(=O)O

target: Hu PD-L1/PD-1 (Homo sapiens, UniProt Q9NZQ7); experiment: Cell binding assay Hu PD-L1/PD-1 (Tables 11-13, cell line not given); assay type: cell-based; conditions: not given
Sequence (Q9NZQ7 19-290): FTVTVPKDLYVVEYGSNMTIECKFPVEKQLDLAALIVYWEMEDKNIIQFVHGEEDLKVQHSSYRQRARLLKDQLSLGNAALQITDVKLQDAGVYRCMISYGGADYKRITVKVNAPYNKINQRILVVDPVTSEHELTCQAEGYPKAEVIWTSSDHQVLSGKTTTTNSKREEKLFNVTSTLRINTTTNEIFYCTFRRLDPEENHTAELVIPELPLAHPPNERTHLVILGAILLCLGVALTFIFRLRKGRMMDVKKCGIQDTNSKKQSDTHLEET
Method: The ability of the macrocyclic peptides of the present disclosure to bind to Jurkat, mouse B cell line (LK35.2), and a human lung adenocarcinoma cell line (L2987) was investigated. Jurkat-PD-1 Cell Binding Assay. Phycoerythrin (PE) was covalently linked to the Ig epitope tag of human PD-L1-Ig and fluorescently-labeled PD-L1-Ig was used for binding studies with a Jurkat cell line over-expressing human PD-1 (Jurkat-PD-1). […] Cells were washed 3× in dPBS. Cells were resuspended in 200 μl of dPBS and binding was measured by flow cytometry. LK35.2-hPD-L1 Cell Binding Assay. Phycoerythrin (PE) was covalently linked to the Ig eptitope tag of human PD-1-Ig and fluorescently-labeled PD-1-Ig was used for binding studies with a mouse B cell line (LK35.2) stably over-expressing human PD-L1 (LK35.2-hPD-L1). Briefly, […] LK35.2-hPD-L1 cells were pre-incubated with inhibitor for 15 m in a 30 μl volume of RPMI supplemented with 2% fetal calf serum. 20 μl of PE-labeled PD-1-Ig (2 nM final), diluted in RPMI supplemented with 2% fetal calf serum, was dispensed on top of cells and inhibitor and binding was allowed to take place for 1 h at room temperature. Cells were washed 3× in dPBS. Cells were resuspended in 200 μl of dPBS and binding was measured by flow cytometry. L2987 Cellomics Cell Binding Assay. Phycoerythrin (PE) was covalently linked to the Ig eptitope tag of human PD-1-Ig and fluorescently-labeled PD-1-Ig was used for binding studies with a human lung adenocarcinoma cell line (L2987) which naturally expresses PD-L1. […] The following day, inhibitors were diluted in serum-free DMEM and 25 μl was dispensed on top of cells. […] Samples were incubated for 1 h at 37° C. followed by 2 washes in dPBS and fixation for 30 m with 4% paraformaldehyde. Samples were further washed 2× in dPBS. Hoechst (final 1 μg/ml) was added to final wash to stain nuclei. Plates were processed using a Cellomics […]®.

Q: Which IC50 does the source give for `CCCC[C@H]1C(=O)N(C)[C@@H](CCCC)C(=O)N[C@@H](CCCNC(=N)N)C(=O)N[C@@H](C(=O)NCC(N)=O)CSCC(=O)N[C@@H](Cc2ccc(F)cc2)C(=O)N(C)[C@@H](C)C(=O)N[C@@H](CC(N)=O)C(=O)N2CCC[C@H]2C(=O)N[C@@H](Cc2cnc[nH]2)C(=O)N[C@@H](CC(C)C)C(=O)N(C)CC(=O)N[C@@H](Cc2c[nH]c3ccccc23)C(=O)N[C@@H](CO)C(=O)N[C@@H](Cc2c[nH]c3ccccc23)C(=O)N1C` [Compound No. 32] ({CH2CO}-[Phe(4-F)][NMeA]NPHL[Sar]WSW[NMeNle][NMeNle]R[dC]G-NH2; thioether N-14) here?
A: 0.025 µM

Q: Which IC50 does the source give for `CCCC[C@H]1C(=O)N(C)[C@@H](CCCC)C(=O)N[C@@H](CCCNC(=N)N)C(=O)N[C@H](C(=O)NCC(N)=O)CSCC(=O)N[C@@H](Cc2ccc(-c3ccccc3)cc2)C(=O)N(C)[C@@H](C)C(=O)N[C@@H](CC(N)=O)C(=O)N2CCC[C@H]2C(=O)N[C@@H](Cc2cnc[nH]2)C(=O)N[C@@H](CC(C)C)C(=O)N(C)CC(=O)N[C@@H](Cc2c[nH]c3ccccc23)C(=O)N[C@@H](CO)C(=O)N[C@@H](Cc2c[nH]c3ccccc23)C(=O)N1C` [Compound No. 28] ({CH2CO}-[Bip][NMeA]NPHL[Sar]WSW[NMeNle][NMeNle]RCG-NH2; thioether N-14) here?
A: 0.082 µM

Q: Which IC50 does the source give for `CCCC[C@H]1C(=O)N(C)[C@@H](CCCC)C(=O)N[C@@H](CCCNC(=N)N)C(=O)N[C@H](C(=O)NCC(N)=O)CSCC(=O)N[C@@H](Cc2ccccc2)C(=O)N(C)[C@@H](C(C)C)C(=O)N[C@@H](CC(N)=O)C(=O)N2CCC[C@H]2C(=O)N[C@@H](Cc2c[nH]cn2)C(=O)N[C@@H](CC(C)C)C(=O)N(C)CC(=O)N[C@@H](Cc2c[nH]c3ccccc23)C(=O)N[C@@H](CO)C(=O)N[C@@H](Cc2c[nH]c3ccccc23)C(=O)N1C` [Compound No. 41] ({CH2CO}-F[NMeV]NPHL[Sar]WSW[NMeNle][NMeNle]RCG-NH2; thioether N-14) here?
A: > 10 µM

Q: With `CCCC[C@H]1C(=O)N(C)[C@@H](CCCC)C(=O)N[C@@H](CCCNC(=N)N)C(=O)N[C@H](C(=O)NCC(N)=O)CSCC(=O)N[C@@H](C)C(=O)N(C)[C@@H](C)C(=O)N[C@@H](CC(N)=O)C(=O)N2CCCC2C(=O)N[C@@H](Cc2cnc[nH]2)C(=O)N[C@@H](CC(C)C)C(=O)N(C)CC(=O)N[C@@H](Cc2c[nH]c3ccccc23)C(=O)N[C@@H](CO)C(=O)N[C@@H](Cc2c[nH]c3ccccc23)C(=O)N1C` (stereo partly drawn) [Compound No. 5] ({CH2CO}-A[NMeA]N[ξP]HL[Sar]WSW[NMeNle][NMeNle]RCG-NH2; thioether N-14) as the compound, how does the IC50 read?
A: > 10 µM

Q: How did the IC50 turn out when `CCCC[C@H]1C(=O)N(C)[C@@H](CCCC)C(=O)N[C@@H](CCCNC(=N)N)C(=O)N[C@H](C(=O)NCC(N)=O)CSCC(=O)N[C@@H](Cc2ccccc2)C(=O)N(C)[C@@H](C)C(=O)N[C@@H](CC(N)=O)C(=O)N2CCC[C@H]2C(=O)N[C@@H](Cc2cnc[nH]2)C(=O)N[C@@H](CC(C)C)C(=O)N(C)CC(=O)N[C@@H](Cc2c[nH]c3ccccc23)C(=O)N[C@@H](CO)C(=O)N[C@@H](CC(C)C)C(=O)N1C` [Compound No. 63] ({CH2CO}-F[NMeA]NPHL[Sar]WSL[NMeNle][NMeNle]RCG-NH2; thioether N-14) was run?
A: > 10 µM

same assay, conditions: Table 13, Compound No. 71 series

Q: Which IC50 does the source give for `CCCC[C@H]1C(=O)N(C)CC(=O)N[C@@H](CC(=O)O)C(=O)N[C@@H](C(C)C)C(=O)N(C)[C@@H](Cc2ccccc2)C(=O)N[C@@H](Cc2ccc(O)cc2)C(=O)N(C)CC(=O)N[C@@H](Cc2c[nH]c3ccccc23)C(=O)N[C@@H](Cc2ccc(O)cc2)C(=O)N[C@@H](CC(C)C)C(=O)N[C@H](C(=O)NCC(N)=O)CSCC(=O)N[C@@H](C)C(=O)N(C)[C@@H](Cc2ccccc2)C(=O)N1C` [Compound No. 72] (HELM PEPTIDE1{[O=C(C[*:3])[*:2]].A.[meF].[CCCC[C@@H](C(=O)[*:2])N(C)[*:1]].[Sar].D.V.[meF].Y.[Sar].W.Y.L.C.G.[am]}$PEPTIDE1,PEPTIDE1,1:R3-14:R3$$$V2.0) here?
A: > 10 µM
